pIC50: −log10 of the molar value. “And” between values parts separate entries of the source, which are not always exact repeats. Equal entries are not always repeated. Where two headings read alike, the source gives them in different places.
Experiments:
A. fumigatus SglA = A. fumigatus SglA (Aspergillus fumigatus, UniProt Q4WXA7); assay: Ergosterol 3β-D-glucoside (ErgGlc) hydrolysis by SglA, ergosterol quantified by HPLC; format: biochemical
Method: We assessed the potential inhibition of SglA enzymatic activity toward ErgGlc by the seven derivatives at concentrations of 0.1, 1, 10, and 100 μM.
A 50-μL volume of wild-type Af SglA containing 10 ng of protein (0.11 pmol) and 50 μL of mixed micelles of lipid and Triton X-100 in 50 mM sodium acetate buffer (pH 5.5) with 150 mM NaCl, 5 mM βME, and 5 mM DTT were mixed and incubated at 37°C for 20 min (ErgGlc; Avanti Polar Lipids). After the incubation period, each reaction was quenched with a 2:1 chloroform-methanol solution, and the organic phase was collected and dried. Then, the lipid content was resuspended in […] methanol and analized by HPLC using Agilent 1260 Infinity II (Agilent Technologies). Total ErgGlc and ergosterol were detected at 282 nm on a C8 column with a flow rate of 0.5 mL/min in methanol-water (90:10) buffered with 1 mM ammonium formate and 0.2% formic acid.

[1] = test system: human lung epithelial cancer cell line A549; conditions: 24 h
Method: The cells were maintained in Dulbecco’s modified Eagle medium (DMEM) containing 10% fetal bovine serum (FBS) and 1% penicillin-streptomycin. At passage 11, 10^5 cells were transferred into each well of 96-well plates and cultured for 18 to 24 h to allow the cells to adhere to the well surface. Next, the medium was removed, and fresh medium containing the selected compounds at concentration range of 1 to 512 μM was added to the wells. Controls with equivalent serial concentrations of DMSO were also evaluated and compared with a control without DMSO. The plate was incubated at 37°C with 5% CO2. After 24 h, the supernatant was removed and 50 μL of 5 mg/mL 3-(4,5-dimethylthiazol-2-yl)-2,5-diphenyltetrazoliumbromide (MTT) solution in PBS was added to each well. The plates were incubated for an additional 4 h, and the formazan crystals formed inside the cell were dissolved by adding 50 μL DMSO. Next, the absorbance was measured at 570 nm, and the calculated LD50 was divided by the IC50 of each hit in order to determine the SI of each compound.

wild-type Af [2] = assay: Ergosterol 3-β-D-glucoside accumulation in live cells (LC-MS); format: cell-based, Aspergillus fumigatus; conditions: 48 h; for ErgGlc accumulation versus control (untreated wild-type Af): 100 and 500 μM
Method: Wild-type Af ΔKu80pyrG1a and the mutant Δsgla strain were cultivated in yeast extract-glucose medium (YAG) (2% [wt/vol] glucose, 0.5% [wt/vol] yeast extract, 1× trace elements, 1× amino acid solution, 2% [wt/vol] bacteriological agar) for 48 h at 37°C. High-nitrate salts, trace elements, and amino acid solutions were prepared as previously described ([37]). The medium was supplemented with 1.2 g/L of uracil and uridine (UU), generating YAG+UU medium when the strain ΔKu80pyrG1a was used. After that, the a conidial suspension in water was obtained, and a pellet with 1 × 10^7 conidia was treated in minimal medium broth pH 6.5 (MM or MM+UU) (1% [wt/vol] glucose, 1× high-nitrate salts, 1× trace elements) for 48 h at 37°C under agitation, with the hits selected, according to the toxicity criteria, at various concentrations. […] After that, the resultant hyphal pellet was used for lipid extraction. Then, the total lipid was extracted as described by Singh et al. ([39]). The dried samples were resuspended in 2:1 chloroform-methanol for liquid chromatography-mass spectrometry (LC-MS) analysis. A standard ErgGlc from Avanti Polar Lipids was used as a control for the calibration curve. Data were normalized to the total inorganic phosphate content in the sample.

wild-type Af [3] = assay: Filamentation assay (hyphal length); format: cell-based, Aspergillus fumigatus; conditions: 12 h
Method: To evaluate hyphal growth, conidial suspensions of the Af wild-type strain ΔKu80pyrG1a and the Δsgla and Δsgla+SGLA strains were obtained as described above. Then, the assay conditions were performed as previously described by Fernandes et al. ([16]). For that, 1 × 10^5 conidia of strain ΔKu80pyrG1a were inoculated onto a glass-bottom dish containing 2 mL of MM or MM+UU with and without the experimental compounds in various concentrations and grown at 37°C for 10 to 12 h. MM broth without the compounds were used for the mutant and the reconstituted strains. The living hyphae growing attached to the glass were analyzed by differential inference contrast (DIC) microscopy using a Zeiss Observer D.1 microscope, and the hyphal length was measured using ImageJ software.

Af wild-type strain [4] = assay: Lung fungal burden quantification by qPCR; format: in vivo, CBA/J mice; conditions: hit B 20, hit C 60, B7 5 mg/kg/day intraperitoneally
Method: Lung fungal burden was assessed by the determination of the amplification of fungal 18S DNA by qPCR. The lungs of euthanized mice were aseptically removed and immediately frozen in liquid nitrogen. Genomic DNA extraction was carried out as previously described by Malavazi and Goldman ([40]) with modifications. Previous to the genomic DNA extraction, the lungs were lyophilized for 2 to 3 days, ground using 2-mm glass beads, resuspended in 1 mL of lysis buffer, and vortexed thoroughly. One milliliter of phenol-chloroform–isoamyl alcohol (25:24:1), stabilized and saturated with 100 mM Tris-EDTA to pH 8.0 (Sigma-Aldrich), was added, and the mixture was vortexed for 10 min to extract nucleic acid. The mixture was centrifuged, and the aqueous phase was collected, and the genomic DNA was precipitated with 500 μL isopropanol. The DNA pellet was washed with 500 μL cold 70% ethanol and air dried, and the DNA pellet was resuspended in 100 μL of DNase-free water. The primers Fungal 18S 5′ UTR fw ([…]) and 3′ UTR rv ([…]) and the mouse glyceraldehyde-3-phosphate dehydrogenase (GAPDH) primers 5′ UTR fw ([…]) and 3′ UTR rv ([…]) were amplified using SYBR green PCR master mix (Thermo Fisher Scientific).

Af SglA = Af SglA (Aspergillus fumigatus, UniProt Q4WXA7); assay: HTS / resorufin 3β-D-glucopyranoside (ResGlp) enzymatic assay of SglA; format: biochemical; conditions: primary screen, ResGlp as the substrate, single compounds 0.25 to 4 μM
Chain of Af SglA (Q4WXA7 entry or part of it): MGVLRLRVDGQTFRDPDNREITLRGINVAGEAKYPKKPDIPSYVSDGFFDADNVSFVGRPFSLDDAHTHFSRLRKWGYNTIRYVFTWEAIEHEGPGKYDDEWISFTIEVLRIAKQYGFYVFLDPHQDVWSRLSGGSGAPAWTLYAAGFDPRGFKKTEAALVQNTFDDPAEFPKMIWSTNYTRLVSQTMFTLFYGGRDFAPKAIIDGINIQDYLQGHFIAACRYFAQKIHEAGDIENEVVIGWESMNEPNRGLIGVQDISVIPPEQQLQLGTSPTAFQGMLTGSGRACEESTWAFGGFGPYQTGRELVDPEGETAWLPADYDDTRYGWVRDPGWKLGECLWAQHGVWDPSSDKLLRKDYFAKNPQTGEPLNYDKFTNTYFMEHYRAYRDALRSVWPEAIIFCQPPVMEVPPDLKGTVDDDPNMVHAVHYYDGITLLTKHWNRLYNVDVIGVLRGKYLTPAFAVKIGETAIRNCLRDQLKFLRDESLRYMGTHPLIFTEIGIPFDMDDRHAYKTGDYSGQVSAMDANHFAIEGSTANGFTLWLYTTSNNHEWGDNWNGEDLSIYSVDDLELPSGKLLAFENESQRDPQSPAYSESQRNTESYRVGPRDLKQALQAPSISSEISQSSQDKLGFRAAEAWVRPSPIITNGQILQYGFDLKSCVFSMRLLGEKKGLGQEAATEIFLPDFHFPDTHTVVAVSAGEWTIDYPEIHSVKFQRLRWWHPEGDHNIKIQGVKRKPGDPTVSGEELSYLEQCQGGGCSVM
Method: (§1) Resorufin 3β-D-glucopyranoside (ResGlp; Sigma-Aldrich) enzyme kinetic assays were performed according to methods described by Pereira de Sa et al. ([17]). Reaction buffer contained 50 mM citric acid, 176 mM K2HPO4 (pH 6), 0.01% Tween 20, and 10 mM sodium taurocholate. The reaction was carried out in a black 96-well plate using 0.23 pmol of SglA with 100 μM ResGlp substrate. 10 μL/well of ResGlp was added to each well and the reaction was initiated by adding 20 μL enzyme (0.23 pmol). After incubation at 37°C for 30 min, the fluorescence was read at an excitation of 570 (±10) nm and an emission of 610 (±10) nm on a VersaMax microplate reader from Molecular Devices. A standard curve was prepared with serial dilutions of the free fluorophore, resorufin, in the same volume of assay buffer. All reactions were linear with respect to time and protein concentration, and the pH, temperature, and dimethyl sulfoxide (DMSO) optimal tolerance were verified.
(§2) A ChemBridge DIVERSet-CL library (ChemBridge, San Diego, CA) containing 50,000 compounds was screened to identify small molecules that inhibit Af SglA. The library was prepared in a 96-well plate format containing a cocktail of 10 compounds per well at 1 mM each in 100% DMSO. The cocktail plates were first diluted to 100 μM each (1:10 dilution in Dulbecco’s phosphate-buffered saline [DPBS]), resulting in 10% DMSO. In order to screen the compound cocktails at […] in 1% DMSO in a final reaction volume of 30 μL, an aliquot of 3 μL was added to 17 μL of buffer containing 0.23 pmol of enzyme and the reaction was started by adding 10 μL of 100 μM ResGlp. A negative control without enzyme and positive controls with and without DMSO were prepared. The plates were incubated at 37°C for 30 min. The Z′ factor was used for the assessment of the efficiency of the HTS assay for each plate. Values greater than 0.5 are considered indicators of excellent screening assay quality ([36]).

Af wild-type strain [5] = assay: Mouse model of pulmonary aspergillosis, survival; format: in vivo, CBA/J mice
Method: Male and female CBA/J mice 5 to 6 weeks old were purchased from Envigo and allowed 1 week to acclimate upon arrival. One day prior to infection, the animals were immunosuppressed with 100 mg/kg of the corticosteroid triamcinolone acetonide (Alfa Aesar) subcutaneously as previously described ([16]). On the day of the infection, the animals were initially anesthetized with a ketamine-xylazine solution (95 mg of ketamine and 5 mg of xylazine per kg of body weight) intraperitoneally and then infected with 2.5 × 10^4 Af wild-type ΔKu80pyrG+ conidia in 20 μL of PBS intranasally. One hour after the procedure, intraperitoneal treatment with hit B (5 and 20 mg/kg/day) and hit C (20 and 60 mg/kg/day) was started and continued until 30 days postinfection. Mice that survived until day 30 were euthanized by CO2 inhalation and used for organ fungal burden determinations. A similar procedure was performed for derivative B7 at a dose of 5 mg/kg/day.

[6] = test system: O=c1ccc2nc3ccc(O[C@@H]4O[C@H](CO)[C@@H](O)[C@H](O)[C@H]4O)cc3oc-2c1; assay: HTS / resorufin 3β-D-glucopyranoside (ResGlp) enzymatic assay of SglA; format: biochemical, Aspergillus fumigatus; conditions: other: substrate kinetics, 0.23 pmol of SglA; pH 6.0; 37.0 °C
Method: as §1, §2

[7] = substrate in Triton X-100 mixed micelles, 0.11 pmol SglA, 20 min
[8] = ErgGlc as the substrate, read-out: IC50

Chain of A. fumigatus SglA (Q4WXA7 entry or part of it): as above

CC(C)[C@@H](C)/C=C/[C@@H](C)[C@H]1CC[C@H]2C3=CC=C4C[C@@H](O[C@@H]5O[C@H](CO)[C@@H](O)[C@H](O)[C@H]5O)CC[C@]4(C)[C@H]3CC[C@]12C [ErgGlc, ergosterol 3β-D-glucoside, reference compound]
Km (A. fumigatus SglA; [7]): 0.57 ± 0.09 mol%
kcat (A. fumigatus SglA; [7]): 0.73 ± 0.04 s⁻¹

Cc1cc(CNc2cc(N)ncn2)c2[nH]c(C)c(C)c2c1 [Hit B1, N-[(2,3,5-trimethyl-1H-indol-7-yl)methyl]pyrimidine-4,6-diamine]
pIC50 (A. fumigatus SglA; [8]): < 4.00

Cc1[nH]c2ccc(CNc3cc(NCCO)ncn3)cc2c1C [Hit B2, 2-[(6-{[(2,3-dimethyl-1H-indol-5-yl)methyl]amino}pyrimidin-4-yl)amino]ethanol]
pIC50 (A. fumigatus SglA; [8]): 4.82

CCc1[nH]c2ccc(CNc3ccnc(N)n3)cc2c1C [Hit B3, N~4~-[(2-ethyl-3-methyl-1H-indol-5-yl)methyl]pyrimidine-2,4-diamine]
pIC50 (A. fumigatus SglA; [8]): < 4.00

Cc1cc(CNc2ccnc(N)n2)c2[nH]c(C)c(C)c2c1 [Hit B4, N~4~-[(2,3,5-trimethyl-1H-indol-7-yl)methyl]pyrimidine-2,4-diamine]
pIC50 (A. fumigatus SglA; [8]): < 4.00

Cc1[nH]c2ccc(CNc3cc(N4CCOCC4)ncn3)cc2c1C [Hit B5, N-[(2,3-dimethyl-1H-indol-5-yl)methyl]-6-morpholin-4-ylpyrimidin-4-amine]
pIC50 (A. fumigatus SglA; [8]): 4.82

CCc1[nH]c2ccc(CNc3cc(C)nc(NC)n3)cc2c1C [Hit B6, N~4~-[(2-ethyl-3-methyl-1H-indol-5-yl)methyl]-N~2~,6-dimethylpyrimidine-2,4-diamine]
pIC50 (A. fumigatus SglA; [8]): 5.05

CCc1[nH]c2ccc(CNc3nc(C)cc(NC)n3)cc2c1C [Hit B7, N~2~-[(2-ethyl-3-methyl-1H-indol-5-yl)methyl]-N~4~,6-dimethylpyrimidine-2,4-diamine]
pIC50 (A. fumigatus SglA): 5.52
LD50 [1]: 200 µM
ErgGlc accumulation compared with hit B (wild-type Af [2]; 100 μM): significantly higher accumulation of ErgGlc than treatment with hit B
hyphal length compared with hit B (wild-type Af [3]; 50 and 100 μM): shorter hyphae than hit B
lung fungal burden of mice that survived 30 days (Af wild-type strain [4]): full recovery

Cc1[nH]c2ccc(CNc3cc(N)ncn3)cc2c1C [Hit B]
pIC50 (Af SglA): 6.00 and 5.70 to 6.00
pIC50 (A. fumigatus SglA): 5.00
IC50 (A. fumigatus SglA; ErgGlc as the substrate): low micromolar range
ErgGlc accumulation versus control (untreated wild-type Af) (wild-type Af [2]): differed significantly from the control
germination and hyphal growth of Af wild-type conidia (wild-type Af [3]; 50 and 100 μM, 37°C): significantly delays the germination and hyphal growth
survival of animals (Af wild-type strain [5]; 20 mg/kg/day intraperitoneally, 30 days, immunosuppressed mice): 50%
lung fungal burden of mice that survived 30 days (Af wild-type strain [4]): no fungal burden in the lung tissue

CC(Cc1ccc2c(c1)OCO2)c1c(-c2ccccc2)ncn1CCO (centres unmarked) [Hit C]
pIC50 (Af SglA): 5.70 and 5.70 to 6.00
IC50 (A. fumigatus SglA; ErgGlc as the substrate): low micromolar range
LD50 [1]: > 200 µM
ErgGlc accumulation versus control (untreated wild-type Af) (wild-type Af [2]): differed significantly from the control
hyphal growth (wild-type Af [3]; all concentrations tested (1 to 100 μM)): significantly reduced hyphal growth at all concentrations tested
survival versus infected untreated mice (Af wild-type strain [5]; 60 mg/kg/day intraperitoneally): significantly prolonged mouse survival
survival of animals (Af wild-type strain [5]; 60 mg/kg/day intraperitoneally, until day 30 postinfection): 20%
lung fungal burden of mice that survived 30 days (Af wild-type strain [4]): full lung clearance

Af SglA (Aspergillus fumigatus Af293)
Km [6]: 86.2 µM
